Results: PubChem BioAssay (NCI)
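Cultured in 96-well plates, cells were exposed to test compound for 48 hours across five concentrations. Abbreviation: GI50, concentration required for 50% inhibition of growth. TGI: concentration producing complete growth inhibition.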

Key:
Assay in all cases: DTP human tumour cell line panel, 48 h
IGROV1 ovarian = system: IGROV1 ovarian
ACHN renal = system: ACHN renal
SW-620 colon = system: SW-620 colon
UO-31 renal = system: UO-31 renal
SR leukemia = system: SR leukemia
M14 melanoma = system: M14 melanoma
KM12 colon = system: KM12 colon
MALME-3M melanoma = system: MALME-3M melanoma
PC-3 prostate = system: PC-3 prostate
NCI/ADR-RES ovarian = system: NCI/ADR-RES ovarian

For `CN(C)[C@@H]1C(=O)C(C(=O)NCNCCCC(=O)O)=C(O)[C@@]2(O)C(=O)C3=C(O)c4c(O)cccc4[C@@](C)(O)[C@H]3C[C@@H]12`, the TGI (IGROV1 ovarian) was > 100 µM, the TGI (ACHN renal) was > 100 µM and the TGI (SW-620 colon) was > 100 µM. The TGI (UO-31 renal) was > 100 µM, the TGI (SR leukemia) was > 100 µM and the TGI (M14 melanoma) was > 100 µM. For the same compound, the TGI (KM12 colon) was > 100 µM.

For `Cc1cc(=O)[nH]c(NN2C(Cl)C(=O)C2c2cccc([N+](=O)[O-])c2)n1` (stereo unspecified), the TGI (ACHN renal) was > 100 µM, the TGI (SW-620 colon) was > 100 µM and the TGI (UO-31 renal) was > 100 µM. For the same compound, the TGI (SR leukemia) was 57.8 µM, the TGI (M14 melanoma) was 32.2 µM and the TGI (KM12 colon) was 80.9 µM.

Compound `N=C(N)c1ccc(-c2ccc(-c3ccc(Cl)cn3)s2)cc1` has a GI50 (ACHN renal) of 1.61 µM, a TGI (ACHN renal) of 2.96 µM and a GI50 (UO-31 renal) of 1.68 µM. It also gave a TGI (UO-31 renal) of 3.07 µM, a GI50 (MALME-3M melanoma) of 1.68 µM and a TGI (MALME-3M melanoma) of 3.14 µM. The GI50 (M14 melanoma) was 1.77 µM, the TGI (M14 melanoma) was 3.24 µM and the GI50 (PC-3 prostate) was 1.65 µM. It also gave a TGI (PC-3 prostate) of 3.17 µM.

For `CCN(CC)Cc1ccc2cccnc2c1O`, the TGI (IGROV1 ovarian) was 18.4 µM, the TGI (ACHN renal) was > 100 µM and the TGI (SW-620 colon) was > 100 µM. The TGI (UO-31 renal) was > 100 µM, the TGI (MALME-3M melanoma) was > 100 µM and the TGI (SR leukemia) was > 100 µM. For the same compound, the TGI (NCI/ADR-RES ovarian) was 2.1 µM and the TGI (PC-3 prostate) was > 100 µM.

For `O=C1c2ccccc2C(=O)c2c(NCCNC(=O)C3CCCN3)ccc(NCCNC(=O)C3CCCN3)c21` (stereo unspecified), the TGI (IGROV1 ovarian) was > 100 µM, the TGI (ACHN renal) was > 100 µM and the TGI (SW-620 colon) was > 100 µM. The TGI (UO-31 renal) was > 100 µM, the TGI (MALME-3M melanoma) was > 100 µM and the TGI (SR leukemia) was 66.8 µM. For the same compound, the TGI (NCI/ADR-RES ovarian) was > 100 µM, the TGI (M14 melanoma) was > 100 µM and the TGI (PC-3 prostate) was > 100 µM. It also gave a TGI (KM12 colon) of 49.8 µM.

`CN(C)c1ccc2nc3c(C(=O)O)cc(=O)c(O)c-3oc2c1` was tested, and the TGI (IGROV1 ovarian) was > 100 µM, the TGI (ACHN renal) was > 100 µM and the TGI (SW-620 colon) was > 100 µM. It also gave a TGI (UO-31 renal) of 80.1 µM, a TGI (MALME-3M melanoma) of 31.7 µM and a TGI (SR leukemia) of 50.1 µM. For the same compound, the TGI (NCI/ADR-RES ovarian) was 85.7 µM, the TGI (M14 melanoma) was 49.8 µM and the TGI (PC-3 prostate) was > 100 µM. For the same compound, the TGI (KM12 colon) was > 100 µM.

With `COc1ccc(-n2c3c(c4cc(O)ccc42)C(=O)c2ccccc2C3=O)cc1` the TGI (IGROV1 ovarian) was 30.8 µM, the TGI (ACHN renal) was 56.7 µM and the TGI (SW-620 colon) was > 100 µM. The TGI (UO-31 renal) was > 100 µM, the TGI (MALME-3M melanoma) was > 100 µM and the TGI (SR leukemia) was 56.9 µM. For the same compound, the TGI (NCI/ADR-RES ovarian) was 24.9 µM, the TGI (M14 melanoma) was > 100 µM and the TGI (PC-3 prostate) was 87.3 µM. For the same compound, the TGI (KM12 colon) was > 100 µM.

With `O=C(CC1(O)C(=O)Nc2ccc(Br)cc21)c1ccc(C(=O)NCC2CCC3(CC2)OOC2(CCCCC2)OO3)cc1` (stereo unspecified) the GI50 (IGROV1 ovarian) was 1.52 µM, the TGI (IGROV1 ovarian) was 11.6 µM and the GI50 (ACHN renal) was 2.02 µM. It also gave a TGI (ACHN renal) of 5.38 µM, a GI50 (SW-620 colon) of 2.76 µM and a TGI (SW-620 colon) of 13 µM. The GI50 (MALME-3M melanoma) was 2.47 µM, the TGI (MALME-3M melanoma) was 6.63 µM and the GI50 (NCI/ADR-RES ovarian) was 15.1 µM. The TGI (NCI/ADR-RES ovarian) was 69.3 µM, the GI50 (M14 melanoma) was 8.68 µM and the TGI (M14 melanoma) was 63.4 µM. The GI50 (PC-3 prostate) was 2.64 µM, the TGI (PC-3 prostate) was 22.3 µM and the GI50 (KM12 colon) was 3.08 µM. It also gave a TGI (KM12 colon) of 31.2 µM.

With `CN(C)CCNC(=O)c1cccc2nc3c4ccccc4c4ccccc4c3nc12` the TGI (IGROV1 ovarian) was 12.3 µM, the TGI (ACHN renal) was 12.4 µM and the TGI (SW-620 colon) was 6.59 µM. The TGI (UO-31 renal) was 22.9 µM, the TGI (MALME-3M melanoma) was 3.6 µM and the TGI (SR leukemia) was 13 µM. The TGI (M14 melanoma) was 4.97 µM, the TGI (PC-3 prostate) was 3.05 µM and the TGI (KM12 colon) was 3.06 µM.

In the case of `Cc1ccc(C)c(/C(=N\N=C(N)N)C2CC2)c1`, the TGI (IGROV1 ovarian) was > 100 µM, the TGI (ACHN renal) was > 100 µM and the TGI (SW-620 colon) was > 100 µM. The TGI (UO-31 renal) was > 100 µM, the TGI (MALME-3M melanoma) was > 100 µM and the TGI (SR leukemia) was > 100 µM. For the same compound, the TGI (NCI/ADR-RES ovarian) was > 100 µM, the TGI (M14 melanoma) was > 100 µM and the TGI (PC-3 prostate) was > 100 µM. For the same compound, the TGI (KM12 colon) was > 100 µM.

With `C[n+]1cccc(/C=C/c2ccc3cccc(O)c3n2)c1` the TGI (IGROV1 ovarian) was > 100 µM, the TGI (ACHN renal) was > 100 µM and the TGI (SW-620 colon) was > 100 µM. The TGI (UO-31 renal) was > 100 µM, the TGI (MALME-3M melanoma) was 93.5 µM and the TGI (SR leukemia) was > 100 µM. For the same compound, the TGI (NCI/ADR-RES ovarian) was > 100 µM, the TGI (M14 melanoma) was > 100 µM and the TGI (PC-3 prostate) was > 100 µM. For the same compound, the TGI (KM12 colon) was > 100 µM.

Compound `C[C@H]1CCC/C=C/[C@@H]2C[C@H](O)C[C@H]2[C@H](O)[C@@H](S(=O)CCN)CC(=O)O1` (stereo partly specified) has a GI50 (IGROV1 ovarian) of 0.166 µM, a GI50 (ACHN renal) of 0.121 µM and a TGI (ACHN renal) of 2.84 µM. It also gave a GI50 (SW-620 colon) of 0.0576 µM, a GI50 (UO-31 renal) of 0.0269 µM and a TGI (UO-31 renal) of 0.446 µM. For the same compound, the GI50 (MALME-3M melanoma) was < 0.0138 µM, the TGI (MALME-3M melanoma) was 0.382 µM and the GI50 (NCI/ADR-RES ovarian) was 0.0196 µM. The TGI (NCI/ADR-RES ovarian) was 0.137 µM, the GI50 (M14 melanoma) was 0.0294 µM and the GI50 (PC-3 prostate) was 0.0442 µM. The GI50 (KM12 colon) was < 0.0139 µM.

`COc1cnc2c(c1)C(=O)c1c-2n(CCCN2CCNCC2)c(=O)c2cc(Cl)ccc12` showed a GI50 (ACHN renal) of 0.181 µM, a TGI (ACHN renal) of 1.27 µM and a GI50 (SW-620 colon) of 0.0856 µM. The TGI (SW-620 colon) was 1.82 µM, the GI50 (UO-31 renal) was 1.03 µM and the TGI (UO-31 renal) was 2.41 µM. The GI50 (KM12 colon) was 0.55 µM and the TGI (KM12 colon) was 2.04 µM.

In the case of `Oc1cc(O)cc(/C=C/c2ccc(O)c(O)c2)c1`, the TGI (IGROV1 ovarian) was 32.1 µM, the TGI (SW-620 colon) was > 51.8 µM and the TGI (UO-31 renal) was 39.3 µM. The TGI (MALME-3M melanoma) was > 100 µM, the TGI (NCI/ADR-RES ovarian) was 51 µM and the TGI (KM12 colon) was 11.2 µM.

`COc1cc2ccc1-c1cc(ccc1O)CC1c3cc4c(cc3CCN1C)Oc1c(OC)cc3c(c1O4)C(C2)N(C)CC3` (stereo unspecified) was tested, and the TGI (IGROV1 ovarian) was 4.35 µM, the TGI (ACHN renal) was 3.74 µM and the TGI (SW-620 colon) was 3.31 µM. It also gave a TGI (UO-31 renal) of 3.27 µM, a TGI (MALME-3M melanoma) of 3.48 µM and a TGI (SR leukemia) of 4 µM. For the same compound, the TGI (M14 melanoma) was 3.32 µM and the TGI (KM12 colon) was 3.32 µM.

With `CCOC(=O)c1c2c(c(O)c3ccccc3c(O)n(-c3ccc(C)cc3)c1C)C(=O)C=CC2=O` the TGI (IGROV1 ovarian) was > 100 µM, the TGI (ACHN renal) was 38.4 µM and the TGI (SW-620 colon) was 51.5 µM. The TGI (UO-31 renal) was > 100 µM, the TGI (MALME-3M melanoma) was 37.4 µM and the TGI (NCI/ADR-RES ovarian) was 48.7 µM. The TGI (M14 melanoma) was 44.8 µM, the TGI (PC-3 prostate) was > 100 µM and the TGI (KM12 colon) was 81.7 µM.

`CC[C@H](Nc1nc(N)nc(N)c1Cl)c1nc2cccc(NCc3ccc(C(=O)NO)cc3)c2c(=O)n1-c1ccccc1` showed a GI50 (ACHN renal) of 1.98 µM, a TGI (ACHN renal) of 4.2 µM and a GI50 (SW-620 colon) of 1.63 µM. It also gave a TGI (SW-620 colon) of 4.71 µM, a GI50 (MALME-3M melanoma) of 1.36 µM and a TGI (MALME-3M melanoma) of 4.4 µM. The GI50 (SR leukemia) was 0.579 µM, the TGI (SR leukemia) was > 100 µM and the GI50 (NCI/ADR-RES ovarian) was 12.4 µM. For the same compound, the TGI (NCI/ADR-RES ovarian) was > 100 µM, the GI50 (PC-3 prostate) was 1.53 µM and the TGI (PC-3 prostate) was 3.7 µM. For the same compound, the GI50 (KM12 colon) was 2.08 µM and the TGI (KM12 colon) was 4.62 µM.

In the case of `COc1ccc(CNc2nc(NCc3ccc(OC)cc3)nc(NC(C)C)n2)cc1`, the TGI (IGROV1 ovarian) was > 100 µM, the TGI (ACHN renal) was 59.1 µM and the TGI (SW-620 colon) was > 100 µM. The TGI (UO-31 renal) was > 100 µM, the TGI (MALME-3M melanoma) was 22.8 µM and the TGI (SR leukemia) was > 100 µM. It also gave a TGI (NCI/ADR-RES ovarian) of 18.9 µM, a TGI (M14 melanoma) of 16.7 µM and a TGI (PC-3 prostate) of 23.9 µM. For the same compound, the TGI (KM12 colon) was 76.3 µM.

With `Cc1c2ccnc(-c3ccccc3)c2cc2c1[nH]c1ccccc12` the TGI (IGROV1 ovarian) was 21.4 µM, the TGI (SW-620 colon) was 46.9 µM and the TGI (UO-31 renal) was 4.29 µM. For the same compound, the TGI (MALME-3M melanoma) was 9.31 µM, the TGI (NCI/ADR-RES ovarian) was 6.36 µM and the TGI (KM12 colon) was 26 µM.

With `COc1cc2c(cc1OC)C(Cl)C(c1ccc(Cl)cc1)=C2Cl` (stereo unspecified) the TGI (IGROV1 ovarian) was 48.3 µM, the TGI (ACHN renal) was 30.1 µM and the TGI (SW-620 colon) was 52 µM. It also gave a TGI (UO-31 renal) of 32.6 µM, a TGI (MALME-3M melanoma) of 56.8 µM and a TGI (M14 melanoma) of 33.6 µM.

For `c1ccc2c[n+](CCCCCCCCCC[n+]3ccc4ccccc4c3)ccc2c1`, the TGI (IGROV1 ovarian) was > 10 µM, the TGI (ACHN renal) was > 10 µM and the TGI (SW-620 colon) was > 10 µM. The TGI (UO-31 renal) was > 10 µM, the TGI (MALME-3M melanoma) was > 10 µM and the TGI (SR leukemia) was > 10 µM. For the same compound, the TGI (NCI/ADR-RES ovarian) was > 10 µM, the TGI (M14 melanoma) was > 10 µM and the TGI (PC-3 prostate) was > 10 µM. For the same compound, the TGI (KM12 colon) was > 10 µM.
